The values that follow come from patent publication US7125872B2, “β-sheet mimetics and use thereof as inhibitors of biologically active peptides or proteins” (Myriad Genetics, Inc., priority 1995, dated 2006).

One data set deals with T1, tryptase.
T1 construct: rows headed: Ki tryptase; Ki Tryptase; tryptase; human lung; 2 (nM assay conc.)
The data set can be described thus: tryptase inhibition assay, Ki. Type of data set: biochemical, human. On the procedure:
(§1) The reaction progress curves were recorded by reading the plates, typically 60 times with 30 second to 2 minute intervals. Initial rates were determined by unweighted nonlinear least-squares fitting to a first order reaction in GraFit (Erithacus Software Limited, London, England).
Tryptase: 0.1 M tris, 0.2 M NaCl, 0.1 mg/ml heparin, pH=8.0 was utilized as buffer. […] From this point seven more dilutions were made for the assay.

The target in data set [1] is T2, Thrombin thrombomodulin complex (Bos taurus, UniProt P00735).
T2 construct: thrombin was preincubated with 4 n thrombomodulin for 20 minutes at room temperature
Nature of the data set: thrombin-thrombomodulin complex inhibition assay, Ki. Type of data set: biochemical. The settings on record: read-out: Ki T.T.C. (Thrombin thrombomodulin complex).
Method: Seven sequential dilutions were made from the first point for the assay.
The assay for thrombin-thromomodulin complex was conducted as for thrombin except that prior to the addition of inhibitor and substrate, thrombin was preincubated with 4 n thrombomodulin for 20 minutes at room temperature.

The target in another data set is factor X (Bos taurus, UniProt P00743). The data set can be described thus: Factor X inhibition assay, Ki, bovine plasma enzyme. Type of data set: biochemical. The settings on record: bovine plasma (footnote e). On the procedure: All inhibition assays were performed at room temperature in 96 well microplates using Bio-Rad microplate reader (Model 3550). […] The hydrolysis of chromogenic subsstrates was monitored at 405 nm. The reaction progress curves were recorded by reading the plates, typically 60 times with 30 second to 2 minute intervals. Initial rates were determined by unweighted nonlinear least-squares fitting to a first order reaction in GraFit (Erithacus Software Limited, London, England).
Factor X: Buffer and substrate were the same as used for thrombin assay. A 1:100 dilution was made in the pH8.0 tris buffer to serve as the first point. Seven more dilutions from the first were made for the assay.

The next data set addresses factor VII (Homo sapiens, UniProt P08709). Nature of the data set: Factor VII inhibition assay, Ki (Example 5). Type of data set: biochemical. On the procedure:
as §1
From this concentration point seven more sequential dilutions were made for the assay.

In another data set the target is T3, bovine trypsin (Bos taurus, UniProt P00760).
T3 construct: purchased Sigma
T3 sequence (P00760 24-246): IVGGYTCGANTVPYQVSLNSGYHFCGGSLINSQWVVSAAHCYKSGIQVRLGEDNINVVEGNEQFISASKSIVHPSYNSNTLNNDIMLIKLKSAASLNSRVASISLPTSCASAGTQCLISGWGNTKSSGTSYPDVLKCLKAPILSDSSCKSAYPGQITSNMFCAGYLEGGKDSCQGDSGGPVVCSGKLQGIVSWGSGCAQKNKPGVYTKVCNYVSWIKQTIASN
The data set can be described thus: trypsin inhibition assay, IC50 (Example 4). Type of data set: biochemical. The protocol:
All inhibition assays of this experiment were performed at room temperature in 96 well microplates using a Bio-Rad microplate reader (Model 3550). […] This solution (2.05 mM) served as the stock solution for all the inhibition assays. The hydrolysis of chromogenic substrates was monitored at 405 nm. The reaction progress curves were recorded by reading the plates typically 90 times with 30 seconds to 2 minute intervals. The initial rate were determined by unweighted nonlinear least-squares fitting to a first order reaction in GraFit. The determined initial velocities were then nonlinear least-square fitted against the concentrations of structure.
In the trypsin assay, pH 7.8 Tris (0.10 M Tris and 0.02 M CaCl2) was utilized as the buffer. BAPNA (from Sigma) was used at 1 mg/ml in 1% DMSO (v/v) deionized water solution as substrate. The same dilutions of structure (13b) were made as for Factor VII assay.

Data set [2] in a line: pharmacodynamic and pharmacokinetic study in rats. Type of data set: in vivo, male Sprague Dawley rats. The protocol: Specifically, a pharmacodynamic and pharmacokinetic study of structure (20b) was conducted in male Sprague Dawley rats. […] Groups of rats (n=3 or 4) were sacrificed and exsanguinated at 0.25, 0.5, 1, 2, 4 and 8 hours following dosing. Efficacy parameters, aPTT and TT, were measured for each plasma sample.

factor VII, sequence (P08709 213-466 limits assumed): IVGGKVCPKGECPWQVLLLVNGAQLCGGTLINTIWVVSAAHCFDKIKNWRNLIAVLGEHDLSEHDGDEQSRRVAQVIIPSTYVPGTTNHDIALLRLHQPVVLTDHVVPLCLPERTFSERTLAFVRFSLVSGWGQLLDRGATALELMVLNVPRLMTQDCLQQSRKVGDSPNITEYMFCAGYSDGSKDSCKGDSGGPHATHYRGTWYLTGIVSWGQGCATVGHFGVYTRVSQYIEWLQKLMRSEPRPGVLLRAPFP
factor VII, sequence (P08709 61-212 limits assumed): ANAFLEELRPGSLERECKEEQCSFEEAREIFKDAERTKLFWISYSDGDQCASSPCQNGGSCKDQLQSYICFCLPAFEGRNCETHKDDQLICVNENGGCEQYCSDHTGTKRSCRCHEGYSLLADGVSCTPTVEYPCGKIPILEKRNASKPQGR
factor VII, sequence (P13726 33-295 partner): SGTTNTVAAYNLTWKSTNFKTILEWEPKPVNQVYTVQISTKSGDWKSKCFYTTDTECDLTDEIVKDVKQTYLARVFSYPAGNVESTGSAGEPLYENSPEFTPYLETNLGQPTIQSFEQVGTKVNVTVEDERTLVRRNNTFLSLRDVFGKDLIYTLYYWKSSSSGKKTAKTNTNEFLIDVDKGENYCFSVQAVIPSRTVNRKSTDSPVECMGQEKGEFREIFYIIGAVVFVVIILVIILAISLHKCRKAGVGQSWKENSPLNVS
factor X, sequence (P00743 234-492 limits assumed): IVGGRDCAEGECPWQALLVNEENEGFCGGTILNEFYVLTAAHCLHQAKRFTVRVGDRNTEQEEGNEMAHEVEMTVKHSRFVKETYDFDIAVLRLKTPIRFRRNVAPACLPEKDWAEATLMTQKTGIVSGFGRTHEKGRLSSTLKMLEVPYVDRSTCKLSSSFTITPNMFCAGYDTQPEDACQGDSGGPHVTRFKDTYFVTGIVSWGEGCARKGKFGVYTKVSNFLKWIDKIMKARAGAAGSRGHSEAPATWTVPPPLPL
factor X, sequence (P00743 41-180 limits assumed): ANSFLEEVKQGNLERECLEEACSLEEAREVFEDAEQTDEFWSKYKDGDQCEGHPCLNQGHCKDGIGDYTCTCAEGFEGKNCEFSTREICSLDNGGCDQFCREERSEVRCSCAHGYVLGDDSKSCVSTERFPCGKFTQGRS

As a reminder, the Ki is the equilibrium dissociation constant of an inhibitor or competing ligand from its target. As to `N=C(N)NCCC[C@H](NC(=O)[C@@H]1CC[C@@H]2CC[C@@](N)(Cc3ccccc3)C(=O)N21)C(=O)c1nc2ccccc2s1` [Structure (29b)], the figures for the inhibitory constant (Ki) (at tryptase; in data set [1]) were 9 nM and 0.088 nM, respectively.

On to `N=C(N)NCCC[C@H](NC(=O)[C@@H]1CC[C@@H]2CC[C@](N)(Cc3ccccc3)C(=O)N21)C(=O)c1nc2ccccc2s1` [Structure (29a)], for which the inhibition constant (Ki) at factor X worked out at 4650 nM; at factor VII, 1770 nM. The IC50 is the concentration that inhibits the measured activity by half. High values mean a need for much substance, low ones inhibition by little substance. In turn, `N=C(N)NCCC[C@H](NC(=O)[C@@H]1CCN2CC[C@@](N)(Cc3ccccc3)C(=O)N12)C(=O)CCl` [Structure (13b)] returned a half-inhibitory concentration (IC50) at bovine trypsin of 16 ± 8 nM. Turning to `N=C(N)NCCC[C@H](NC(=O)[C@@H]1CCN2CC[C@@](N)(Cc3ccccc3)C(=O)N12)C(=O)c1nc2ccccc2s1` [Structure (20b)], in data set [2] (rat plasma, 4 mg/kg IV and 10 mg/kg PO, FIGS. 4A and 4B), the “efficacy parameters aPTT and TT” value is recorded as “in viva efficacy”. For the same compound, in data set [2] (rat, 10 mg/kg PO vs 4 mg/kg IV), the “bioavailability of orally administered compound” value is given as “approximately 27%”.
